{
  "source": "patent US5565432A",
  "about": "(American Home Products Corporation, priority 1994, dated 1996)",
  "key": {"[1]": {"tested_on": "normal human plasma", "test": "Anticoagulant activity, partial thromboplastin time (APTT) assay", "details": "for Anticoagulation Activity (APTT) Relative to Heparin: ratio>1 indicates weaker activity relative to heparin on a μg/mL basis", "experimental": "The anticlotting activity of the compounds of this invention were evaluated in a partial thromboplastin time (APTT) assay using normal human plasma collected from 5 donors using the procedure of Fenichel et. al. (Clin. Chem. 1964, 10, 69). A BBL Fibrometer automatic precesion coagulation timer utilizing a 0.3 ml probe was employed. An Ellagic acid activated partial thromboplastin was used for these experiments. This reagent is added to human citrated plasma equilibrated at 37° C. in a plastic well in the clot timer. Calcium at 37° C. is added, the clot timer is started and the time for fibrin clot formation (in seconds) was recorded. The effect of the compounds, added to plasma, over a concentration of 12.5-200 μg/mL was determined. […] An unfractionated heparin comparator was used over the concentration range of 1.25-10 μg/mL. Clotting tests at all concentrations were run in triplicate. Analysis of variance for a randomized block design was used to determine the significance of differences observed in the clotting times. The potency is reported relative to heparin wherein ratio>1 indicates weaker activity relative to heparin on a μg/mL basis."}, "[2]": {"tested_on": "human aortic endothelial cells", "test": "Effect on human endothelial cell growth", "assay_type": "cell-based", "details": "driven by 2% FBS, at doses inhibitory towards human smooth muscle cell proliferation driven by 10% FBS (FIG. 1)", "experimental": "The ability of the compounds of the present invention to inhibit smooth muscle cell proliferation and modulate endothelial cell growth was established using isolated aortic cells obtained from commercial sources or, for certain species, prepared in-house. Cell lines used in this study include human and porcine aortic smooth muscle cells and human aortic endothelial cells. Human aortic cell lines were obtained from Clonetics Corporation (San Diego).\nCells were assayed in early passage (generally passage 3-7) at sub-confluent conditions. Cultures were grown in 16 mm (24 well) multi-well culture dishes in media 199 supplemented with 10% fetal bovine serum and 2% antibiotic/antimycotic. At sub-confluence, the cells were placed in a defined serum free medium (AIM-V; Gibco) for 24-48 h prior to initiating the experimental protocol.\nGrowth factor and serum stimulations were optimized for each cell type.\nCompounds were added to each well at 50 fold dilution (20 μL/well) and the plates were incubated for 24-36 h at 37° C. in 5% CO2. […] Compounds were routinely assayed at 1, 10, and 100 μM. […]\nData was obtained, in triplicate, for both control and experimental samples. […] Data was expressed as a percent of control from which IC50 s could be determined. […]"}, "[3]": {"tested_on": "common carotid artery, intimal thickening", "test": "Experimental model of restenosis (air-dried carotid artery), intimal thickening", "assay_type": "in vivo, Male Sprague-Dawley Rats", "details": "in comparison to untreated animals; dose of 125 μg/mL, i.v. osmotic pump, 2 weeks", "source_text": "Male Sprague-Dawley Rats weighing between 0.3-0.4 kg were housed in polycarbonate cages (2 per box) with corn cob bedding and provided with Purina 5001 rat chow and water (ad. lib. A 12 hr/12 hr light: dark cycle was maintained with light on at 7:00 A.M). After acclimation, rats were randomly assigned to treatment groups (12 per group). The rats were anesthetized with Ketamine, Acepromazone, and Xylazine. The anterior portion of the neck was shaved, a 3 cm incision was made along the midline, and the trachea was exposed by gently parting the underlying tissues and muscle. A retractor was inserted to hold the muscles and tissues aside and the common carotid artery was isolated from the surrounding tissue. A 2 cm segment of the right common carotid artery was lifted such that an 11 mm approximator was placed on the vessel at about […] before the bifurcation of the internal and external branches of the carotid artery. The 5 mm segment of the common carotid artery between the clamps of the approximator was punctured at about 0.5 mm from the edge of each clamp with a 30 G needle and a gentle stream of isotonic saline was injected through the isolated segment to flush out any blood. […]\nTwo weeks following surgery, the rats were sacrificed via anesthetized exsanquination. […] The cross sections were photographed and the arterial media and intima were digitized and measured. […]"}, "[4]": {"tested_on": "restenosis", "details": "prior art; cited from earlier work"}, "[5]": {"tested_on": "smooth muscle cell", "details": "prior art; cited from earlier work"}},
  "note": "Counter-ions that a name gives are not always drawn.",
  "data": [
    {"molecule": "Cc1ccc(CO[C@@H]2O[C@H](COS(=O)(=O)O)[C@@H](O[C@@H]3O[C@H](COS(=O)(=O)O)[C@@H](OS(=O)(=O)O)[C@H](OS(=O)(=O)O)[C@H]3OS(=O)(=O)O)[C@H](OS(=O)(=O)O)[C@H]2OS(=O)(=O)O)cc1NC(=O)c1cc(C(=O)Nc2cc(CO[C@@H]3O[C@H](COS(=O)(=O)O)[C@@H](O[C@@H]4O[C@H](COS(=O)(=O)O)[C@@H](OS(=O)(=O)O)[C@H](OS(=O)(=O)O)[C@H]4OS(=O)(=O)O)[C@H](OS(=O)(=O)O)[C@H]3OS(=O)(=O)O)ccc2C)cc(C(=O)Nc2cc(CO[C@@H]3O[C@H](COS(=O)(=O)O)[C@@H](O[C@@H]4O[C@H](COS(=O)(=O)O)[C@@H](OS(=O)(=O)O)[C@H](OS(=O)(=O)O)[C@H]4OS(=O)(=O)O)[C@H](OS(=O)(=O)O)[C@H]3OS(=O)(=O)O)ccc2C)c1", "note": "[Example 9, Benzene-1,3,5-tricarboxylic Acid Tris{[2-methyl-5-(hepta-O-sulfato-β-cellobiosyloxymethyl)phenyl]amide}Heneicosasodium Salt]", "values": [
      {"measurement": "Anticoagulation Activity (APTT), in words", "setting": "[1]; at 25-200 μg/mL", "value": "no signifcant"}
    ]},
    {"molecule": "O=C(Nc1cc(CO[C@@H]2O[C@H](COS(=O)(=O)O)[C@@H](O[C@@H]3O[C@H](COS(=O)(=O)O)[C@@H](OS(=O)(=O)O)[C@H](OS(=O)(=O)O)[C@H]3OS(=O)(=O)O)[C@H](OS(=O)(=O)O)[C@H]2OS(=O)(=O)O)ccc1Cl)c1cc(C(=O)Nc2cc(CO[C@@H]3O[C@H](COS(=O)(=O)O)[C@@H](O[C@@H]4O[C@H](COS(=O)(=O)O)[C@@H](OS(=O)(=O)O)[C@H](OS(=O)(=O)O)[C@H]4OS(=O)(=O)O)[C@H](OS(=O)(=O)O)[C@H]3OS(=O)(=O)O)ccc2Cl)cc(C(=O)Nc2cc(CO[C@@H]3O[C@H](COS(=O)(=O)O)[C@@H](O[C@@H]4O[C@H](COS(=O)(=O)O)[C@@H](OS(=O)(=O)O)[C@H](OS(=O)(=O)O)[C@H]4OS(=O)(=O)O)[C@H](OS(=O)(=O)O)[C@H]3OS(=O)(=O)O)ccc2Cl)c1", "note": "[Example 11]", "values": [
      {"measurement": "human endothelial cell growth", "setting": "[2]", "value": "enhance human endothelial cell growth"},
      {"measurement": "inhibition of intimal thickening", "setting": "[3]", "value": 50, "unit": "%"},
      {"measurement": "Anticoagulation Activity (APTT) Relative to Heparin", "setting": "[1]", "value": 72}
    ]},
    {"molecule": "O=C(Nc1cc(CO[C@@H]2O[C@H](COS(=O)(=O)O)[C@@H](O[C@@H]3O[C@H](COS(=O)(=O)O)[C@@H](OS(=O)(=O)O)[C@H](OS(=O)(=O)O)[C@H]3OS(=O)(=O)O)[C@H](OS(=O)(=O)O)[C@H]2OS(=O)(=O)O)cc(CO[C@@H]2O[C@H](COS(=O)(=O)O)[C@@H](O[C@@H]3O[C@H](COS(=O)(=O)O)[C@@H](OS(=O)(=O)O)[C@H](OS(=O)(=O)O)[C@H]3OS(=O)(=O)O)[C@H](OS(=O)(=O)O)[C@H]2OS(=O)(=O)O)c1)c1cc(C(=O)Nc2cc(CO[C@@H]3O[C@H](COS(=O)(=O)O)[C@@H](O[C@@H]4O[C@H](COS(=O)(=O)O)[C@@H](OS(=O)(=O)O)[C@H](OS(=O)(=O)O)[C@H]4OS(=O)(=O)O)[C@H](OS(=O)(=O)O)[C@H]3OS(=O)(=O)O)cc(CO[C@@H]3O[C@H](COS(=O)(=O)O)[C@@H](O[C@@H]4O[C@H](COS(=O)(=O)O)[C@@H](OS(=O)(=O)O)[C@H](OS(=O)(=O)O)[C@H]4OS(=O)(=O)O)[C@H](OS(=O)(=O)O)[C@H]3OS(=O)(=O)O)c2)cc(C(=O)Nc2cc(CO[C@@H]3O[C@H](COS(=O)(=O)O)[C@@H](O[C@@H]4O[C@H](COS(=O)(=O)O)[C@@H](OS(=O)(=O)O)[C@H](OS(=O)(=O)O)[C@H]4OS(=O)(=O)O)[C@H](OS(=O)(=O)O)[C@H]3OS(=O)(=O)O)cc(CO[C@@H]3O[C@H](COS(=O)(=O)O)[C@@H](O[C@@H]4O[C@H](COS(=O)(=O)O)[C@@H](OS(=O)(=O)O)[C@H](OS(=O)(=O)O)[C@H]4OS(=O)(=O)O)[C@H](OS(=O)(=O)O)[C@H]3OS(=O)(=O)O)c2)c1", "note": "[Example 14, Benzene-1,3,5-tricarboxylic Acid Tris{[3,5-bis-(hepta-O-sulfato-β-D-cellobiosyloxymethyl)phenyl]amide}Tetratetracontasodium Salt]", "values": [
      {"measurement": "Anticoagulation Activity (APTT) Relative to Heparin", "setting": "[1]", "value": 3.1}
    ]},
    {"molecule": "Beta-Cyclodextrin tetradecasulfate", "values": [
      {"measurement": "inhibition of restenosis (literature)", "setting": "[4]", "value": "effective inhibitor of restenosis"},
      {"measurement": "SMC proliferation inhibition (literature)", "setting": "[5]", "value": "smooth muscle cell proliferation inhibitor"}
    ]}
  ]
}
